Laboratory results as given in patent publication US7326680B1, “Uterine contraction inhibitors” (Shionogi & Co., Ltd., priority 1999, dated 2008).
pIC50: −log10 of the molar value. Bridge positions count the residues as written; N and C are the ends. Ends that are not written are not given here.

Legend:
[1] = test system: uterine strips; assay: Stimulation of contraction of uterine strips from rats not treated with estrogen; type: cell-based, rat; conditions: 1 nM oxytocin, 1 μM PGF2α or 10 nM bradykinin
Procedure: (§1) In another experiment, rats without injection of 17β-estradiol were used. The effect of 100 nM AM on uterine contraction induced by 10 nM bradykinin, 1 nM oxytocin, or 1 μM PGF2α was tested in the presence or absence of 1 μM AM[22-52] or 1 μM CGRP[8-37].

[2] = test system: spontaneous myometrial contraction of rat uterine strips; assay: Spontaneous contraction of isolated uterine strips from 17β-estradiol-treated female rats (isotonic transducer); type: cell-based; conditions: for effect on the contraction inhibitory effect of 1 to 100 nM AM (spontaneous contraction): 1 μM preliminary addition; for effect of the antagonist per se on spontaneous contraction: 1 μM, preliminary addition (15 min preincubation)
Procedure: 1 μg of 17β-estradiol in 0.2 ml of 30% ethanol was subcutaneously injected to 10 to 12 week old female rats.
On the following day, the rats were sacrificed by hammering their heads. Thereafter, the rats were decapitated, followed by exsanguination. The uteri were isolated from the rats. Each isolated uterus was cut into four fragments a to d (FIG. 1(A)). Portions of each strip to which blood vessels were attached were cut off, thereby obtaining uterine strips (FIG. 1(B)).
The effect of AM on the rat uterus was examined by measuring contractions of the uterine strips using an isotonic transducer TD-112S (manufactured by Nippon Kohden Corporation) where the tension was 1 g.
While the uterine strip was immersed in 30 ml of a modified Krebs-Ringer bicarbonate (KRB) solution with glucose) (hereinafter simply referred to as “modified KRB solution”), the uterine strip was attached to the isotonic transducer. The composition of the modified KRB solution is as follows: 122 mM NaCl, 26 mM NaHCO3, 5 mM KCl, 1 mM MgSO4.7H2O, 0.03 mM EDTA-2Na, 2.4 mM CaCl2, and 11 mM glucose; pH 7.4).
(§2) Myometrial contraction was continuously measured. After spontaneous rhythm of the uterine muscle was confirmed to be constant, 30 μl of 10^−4 M AM (experimental sample) or distilled water (control sample) was added to the respective modified KRB solution with glucose, where the concentration of AM was 100 nM. 30 minutes after the addition of AM or distilled water, 300 μl of 4.5 M KCl was added to make a KCl concentration of 45 mM.
In a manner similar to that of Example 1, uterine strips were prepared, and attached to an isotonic transducer in a modified KRB solution. Myometrial contraction was continuously measured. After it was confirmed that the spontaneous rhythm of uterine muscle became constant, 30 μl of 1×10^−6, 2×10^−6, 7×10^−6, 2×10^−5, or 7×10^−5 M AM (experimental samples), or distilled water (control sample) was added to the modified KRB solution at time 0 min (initial addition), 5 min later, 12 min later, 22 min later, and 32 min later, where AM concentrations were 1, 3, 10, 30, and 100 nM, respectively. Thereafter, after 45 minutes from the initial addition of AM or distilled water, 300 μl of 4.5 M KCl was added to the solution to be a KCl concentration of 45 mM.
8 to 12 weeks old female rats were used to prepare uterine strips in a manner similar to that of Example 1.
Thereafter, the uterine strip was placed in a tissue chamber filled with 30 ml of a modified KRB solution with aeration of 95% O2/5% CO2 at 37° C. to measure contraction of the uterine strip in a manner similar to that of Example 1. After 40 minutes of equilibrium, the uterine strip was preincubated for 15 minutes in the presence or absence of 1 μM AM[22-52] or 1 μM CGRP[8-37]. Thereafter, AM was added to the modified KRB solution in the tissue chamber to gradually increase the AM concentration from 1 nM to 100 nM, exposing the uterine strip to AM.

[3] = test system: bradykinin-induced contraction of rat uterine strips; assay: Bradykinin-induced contraction of isolated rat uterine strips; type: cell-based; conditions: 10 nM bradykinin; for effect on the inhibitory effect of AM on bradykinin-induced contraction: preliminary addition of 1 μM antagonist
Procedure: In a manner similar to that of Example 1, uterine strips were prepared and attached to an isotonic transducer in a modified KRB solution. At the time when 10 nM bradykinin (Peptide Institute, Inc.) was added to the modified KRB solution, myometrial contraction was continuously measured. 20 minutes after the addition of bradykinin, 100 nM AM or distilled water was further added.
as §1
(§3) In all measurements, the uterine strips were eventually contracted due to 45 mM KCl depolarization to confirm responses of the myometrium. The results are shown in FIGS. 6(a) to 6(f) and FIGS. 7(a) to 7(e).

[4] = test system: galanin-induced tonic contraction of the uterus; conditions: Reference 7; cited from earlier work
[5] = test system: oxytocin-induced contraction of rat uterine strips; assay: Oxytocin-induced contraction of isolated rat uterine strips; type: cell-based; conditions: 100 nM AM, 1 nM oxytocin, rats not treated with estrogen
Procedure: as §1, with “CGRP[8-37]. In all measurements, the uterine strips were eventually contracted due to 45 mM KCl depolarization to confirm responses of the myometrium. The results are shown in FIGS. 6(a) to 6(f) and FIGS. 7(a) to 7(e).” for “CGRP[8-37].”

[6] = test system: PGF2α-induced contraction of rat uterine strips; assay: PGF2α-induced contraction of isolated rat uterine strips; type: cell-based; conditions: 100 nM AM, 1 μM PGF2α, rats not treated with estrogen
Procedure: as §1, with “CGRP[8-37]. In all measurements, the uterine strips were eventually contracted due to 45 mM KCl depolarization to confirm responses of the myometrium. The results are shown in FIGS. 6(a) to 6(f) and FIGS. 7(a) to 7(e).” for “CGRP[8-37].”

[7] = test system: muscle contraction due to activation of voltage-dependent Ca channels (45 mM KCl); assay: 45 mM KCl depolarization-induced contraction of rat uterine strips; type: cell-based; conditions: 100 nM AM, KCl added 30 min after AM
Procedure: as §2, §3

In the case of CC[C@H](C)[C@@H]1NC(=O)[C@H](Cc2ccc(O)cc2)NC(=O)[C@@H](N)CSSC[C@@H](C(=O)N2CCC[C@H]2C(=O)N[C@@H](CC(C)C)C(=O)NCC(N)=O)NC(=O)[C@H](CC(N)=O)NC(=O)[C@H](CCC(N)=O)NC1=O [oxytocin], the “stimulation of uterine contraction” value [1] was “significantly stimulated contraction”.

For “AM[22-52]: an antagonist for an AM receptor (TVQKLAHQIYQFTDKDKDNVAPRSKISPQGY; ends and bridges not checked; UniProt P35318 116-146, looked up, fragment) [reference compound]”, the “effect on the contraction inhibitory effect of 1 to 100 nM AM (spontaneous contraction)” value [2] was “substantially completely prevents”, the “effect of the antagonist per se on spontaneous contraction” value [2] was “had no effect” and the “effect on the inhibitory effect of AM on bradykinin-induced contraction” value ([3]; 100 nM AM) was “eliminated”.

For “CGRP[8-37]: an antagonist for a CGRP receptor (VTHRLAGLLSRSGGVVKNNFVPTNVGSKAF; ends and bridges not checked; UniProt P06881 90-119, looked up, fragment) [reference compound]”, the “effect on the contraction inhibitory effect of 1 to 100 nM AM (spontaneous contraction)” value [2] was “substantially completely prevents”, the “effect of the antagonist per se on spontaneous contraction” value [2] was “had no effect” and the “effect on the inhibitory effect of AM on bradykinin-induced contraction” value ([3]; 100 nM AM) was “eliminated”. The “effect on the action of AM on galanin-induced tonic contraction” value [4] was “eliminated”.

With “YRQSMNQGSRSTGCRFGTCTMQKLAHQIYQFTDKDKDGMAPRNKISPQGY-NH2 (disulfide 14-19; C-terminus assumed) [AM]” the “effect on spontaneous myometrial contraction” value ([2]; 100 nM AM, Example 1, FIGS. 2(c), 2(d)) was “significantly inhibited”, the “effect on spontaneous myometrial contraction, cumulative concentrations” value ([2]; 1, 3, 10, 30, 100 nM AM, Example 2, FIGS. 3(a), 3(b)) was “inhibited by the addition of AM in a concentration-dependent manner” and the pIC50 ([2]; AM 1 to 100 nM, estradiol-treated rats, Example 4, read-out: IC50 of inhibition of spontaneous contraction) was 7.64. For the same molecule, the “reversibility of the inhibitory effect on spontaneous contraction” value ([2]; washing out and exchanging the modified KRB solution after 100 nM AM) was “could be reversed”, the “effect on bradykinin-induced contraction” value ([3]; 100 nM AM added 20 min later, estradiol-treated rats, Example 3) was “inhibited” and the “effect on bradykinin-induced contraction” value ([3]; 100 nM AM, rats not treated with estrogen, Example 4) was “completely blocked”. For the same molecule, the “effect on contraction induced by oxytocin” value [5] was “almost no effect”, the “effect on contraction induced by PGF2α” value [6] was “almost no effect” and the “effect on contraction caused by 45 mM KCl” value [7] was “does not affect”. The “concentration at which galanin-induced tonic contraction of the uterus was inhibited” value [4] was at least 5 µM.

In the case of prostaglandin F2α [PGF2α], the “stimulation of uterine contraction” value [1] was “significantly stimulated contraction”.
